What was measured:
Format in all cases: cell-based
[1] = tested on: Colon cancer (C26, murine) cells; experiment: Tumor cell proliferation assay (ATP-lite), C26; details: Mus musculus, 96 h, inhibition of tumor cell growth by 50%, 4 days incubation, ATP-lite readout
Procedure: (§1) Assay 1: Tumor Cell Proliferation Assay:
(§2) Colon cancer (C26, murine), pancreatic cancer (MiaPaCa-2, human) cells were plated in 96-well white plates (Cat. No. 3917, Corning, Inc.) at 2.5×10^3 cells/well and cultured overnight at 37° C. in 5% CO2 in DMEM containing 10% FCS. Inhibitors were serially diluted in 100% DMSO and subsequently added to cells to reach a final concentration of 0.25% DMSO. Cell plates were incubated for an additional 4 days at 37° C. and 5% CO2 and cell proliferation was quantitated using the ATP-lite cell proliferation kit (Cat. No. 6016943, Perkin Elmer).
(§3) The ATPlite kit quantifies the ATP released from lysed cells by the generation of light caused by the reaction of the released ATP with the Luciferase and D-Luciferin contained in the kit. After the 4th day of incubation, the media is removed from the cell plates and replaced with 100 μL of PBS followed by 50 μL of the lysis solution. The plates are then shaken for 5 minutes on an orbital shaker followed by the addition of 50 μL of substrate solution. The plates are shaken for an additional 5 minutes followed by dark adaptation for 10 minutes and finally read on a Victor^3 V plate reader (1 second/well, Cat. No. 1420-041, Perkin Elmer).
(§4) Columns 2-3 show the concentration of compounds required to inhibit the growth of tumor cells by 50% (IC50 in μM).

[2] = tested on: pancreatic cancer (MiaPaCa-2, human) cells; experiment: Tumor cell proliferation assay (ATP-lite), MiaPaCa-2; details: MIA PaCa-2, 96 h; inhibition of tumor cell growth by 50%; MiaPaCa-2 human pancreatic cancer cells; 4 days incubation; ATP-lite readout
Procedure: as §1, §2, §3, §4

[3] = tested on: Human umbilical vein endothelial cells (HUVEC); experiment: Endothelial tube formation assay; details: 50% reduction in total endothelial tube length, HUVEC on Matrigel, overnight culture
Procedure: Assay 2: Endothelial Tube Formation Assay
Human umbilical vein endothelial cells (HUVEC) (Cascade Biologics #C-003-5C) were plated into 96-well black clear-bottom microplates (Cat. No. 3603, Corning, Inc.) containing 50 uL/well of BD Matrigel Basement Membrane Matrix (BD Biosciences #354234) at 7.5×10^3 cells/well. Inhibitors were serially diluted in 100% DMSO and subsequently added to cells to reach a final concentration of 0.5% DMSO and the plates cultured overnight at 37° C., 5% CO2 in (EGM™-2 MV) (Cambrex #CC-3202). […] Cell plates were incubated in the dark at 37° C., 5% CO2 for 10 minutes and then immediately imaged and quantitated on the Discovery—1 automated microscope (Molecular Devices Corp.) to determine the total endothelial tube length. The total endothelial tube length is calculated using the Angiogenesis image algorithm supplied with the MetaMorph software package (Molecular Devices Corp). […] The binary image is then analyzed to remove objects that are not part of the endothelial tube network, such as cell clumps or debris. Finally, the corrected binary image is processed to reduce the tubes to single pixel width from which the total tube length is calculated. […]

SMILES | IC50 [1] [nM] | IC50 [2] [nM] | IC50 [3] [nM]
COc1nc(NN=C(C)c2ccc(N(C)C)cc2)cc(-c2ccccc2)n1 [Compound 15, (4-{1-[(2-Methoxy-6-phenyl-pyrimidin-4-yl)-hydrazono]-ethyl}-phenyl)-dimethylamine] | < 1000 | < 1000 | –
CC(=NNc1cc(-c2ccccc2N)nc(C)n1)c1ccc(C)cc1 [Compound 38, 2-(2-Methyl-6-{N′-[1-p-tolyl-ethylidene]-hydrazino}-pyrimidin-4-yl)-phenylamine] | < 1000 | < 1000 | –
CC(=NNc1cc(-c2ccccc2OC(F)(F)F)nc(C)n1)c1ccc(N(C)C)cc1 [Compound 11, Dimethyl-[4-(1-{[2-methyl-6-(2-trifluoromethoxy-phenyl)-pyrimidin-4-yl]-hydrazono}-ethyl)-phenyl]-amine] | < 1000 | < 1000 | –
CC(=NNc1cc(-c2ccccc2F)nc(C)n1)c1ccc(N(C)C)cc1 [Compound 13, [4-(1-{[6-(2-Fluoro-phenyl)-2-methyl-pyrimidin-4-yl]-hydrazono}-ethyl)-phenyl]-dimethylamine] | < 1000 | < 1000 | –
CC(=NNc1cc(-c2ccccc2)nc(C)n1)c1ccc(N)cc1 [Compound 42, 4-{1-[(2-Methyl-6-phenyl-pyrimidin-4-yl)-hydrazono]-ethyl}-phenylamine] | 1000 to 15000 | 1000 to 15000 | –
CC(=NNc1cc(-c2ccccc2N)nc(C)n1)c1ccc(N(C)C)cc1 [Compound 14, [4-(1-{[6-(2-amino-phenyl)-2-methyl-pyrimidin-4-yl]-hydrazono}-ethyl)-phenyl]-dimethylamine] | < 1000 | < 1000 | –
CNc1ccc(C(C)=NNc2cc(-c3ccccc3)nc(C)n2)cc1 [Compound 18, Methyl-(4-{1-[(2-methyl-6-phenyl-pyrimidin-4-yl)-hydrazono]-ethyl}-phenyl)-amine] | < 1000 | < 1000 | –
CC(=NN(C)c1nc(C(F)(F)F)nc2ccccc12)c1ccc(C)cc1 [Compound 2] | < 1000 | < 1000 | < 1000
CC(=NN(C)c1nc(C(F)(F)F)nc2ccccc12)c1cccc(C)c1 [Compound 1] | < 1000 | < 1000 | –
CC(=NNc1cc(-c2ccccc2)nc(C)n1)c1ccc(C)cc1 [Compound 41, N-(2-Methyl-6-phenyl-pyrimidin-4-yl)-N′-(1-p-tolyl-ethylidene)-hydrazine] | < 1000 | < 1000 | –
CC(=NNc1cc(-c2ccccc2C)nc(C)n1)c1ccc(C)cc1 [Compound 32, N-[6-(2-methyl-phenyl)-2-methyl-pyrimidin-4-yl]-N′-[1-p-tolyl-ethylidene]-hydrazine] | < 1000 | < 1000 | –
CC(=NNc1cc(-c2ccccc2C#N)nc(C)n1)c1ccc(C)cc1 [Compound 31, 2-(2-Methyl-6-{N′-[1-p-tolyl-ethylidene]-hydrazino}-pyrimidin-4-yl)-benzonitrile] | < 1000 | < 1000 | –
COc1ccccc1-c1cc(NN=C(C)c2ccc(N(C)C)cc2)nc(C)n1 [Compound 9] | < 1000 | < 1000 | –
CC(=O)Nc1ccccc1-c1cc(NN=C(C)c2ccc(C)cc2)nc(C)n1 [Compound 34, N-[2-(2-Methyl-6-{N′-[1-p-tolyl-ethylidene]-hydrazino}-pyrimidin-4-yl)-phenyl]-acetamide] | < 1000 | < 1000 | –
CC(=NN(C)c1nc(C)nc2ccccc12)c1ccc(C)cc1 [Compound 7, N-Methyl-N-(2-methyl-quinazolin-4-yl)-N-(1-p-tolyl-ethylidene)-hydrazine] | < 1000 | < 1000 | < 1000
COc1ccccc1-c1cc(NN=C(C)c2ccc(C)cc2)ncn1 [Compound 25, N-[6-(2-Methoxy-phenyl)-pyrimidin-4-yl]-N′-[1-p-tolyl-ethylidene]-hydrazine] | < 1000 | < 1000 | –
CC(=NNc1cc(-c2ccccc2OC(C)C)nc(C)n1)c1ccc(N(C)C)cc1 [Compound 12, [4-(1-{[6-(2-Isopropoxy-phenyl)-2-methyl-pyrimidin-4-yl]-hydrazono}-ethyl)-phenyl]-dimethylamine] | 1000 to 15000 | < 1000 | –
COc1ccccc1-c1cc(NN=C(C)c2ccc(C)cc2)nc(C)n1 [Compound 29, N-[6-(2-Methoxy-phenyl)-2-methylpyrimidin-4-yl]-N′-[1-p-tolyl-ethylidene]-hydrazine] | < 1000 | < 1000 | –
CC(=NNc1cc(-c2ccccc2F)nc(C)n1)c1ccc(C)cc1 [Compound 27, N-[6-(2-Fluoro-phenyl)-2-methyl-pyrimidin-4-yl]-N′-[1-p-tolyl-ethylidene]-hydrazine] | < 1000 | < 1000 | –

From patent US8288398B2, “Antiproliferative pyrimidyl, fused pyrimidyl and pyrimidyl hydrazones” (Merck Serono SA, priority 2005, dated 2012)
